US10286039B2, “Compositions and methods for treating neutropenia” (Children's Hospital Los Angeles, priority 2014, dated 2019)

Experiments:
[1] = system: neutropenic mice; assay: Neutrophil recovery in CPA-induced neutropenic mice at neutrophil-decrease stage; assay type: in vivo, C57BL6/J mice
Method: To evaluate Am80 effect in vivo, we first tested half maximal effective concentration (EC50) of different human equivalent high, medium, and low doses of Am80 and GCSF (FIG. 5a) on regenerating mature neutrophils in neutropenic mice. Normal C57BL6/J mice were injected with a single dose of cyclophosphamide (CPA) to reduce mouse neutrophils. At 4 hr post-injection of CPA, mice were treated with vehicle, Am80, GCSF, or Am80-GCSF for consecutive 3 days before mice were sacrificed (FIG. 5b). […] Data represent 2 independent experiments with similar results.

[2] = system: S. aureus; assay: Neutrophil bactericidal activity, neutropenic mice at neutrophil-decrease stage, medium dose; assay type: in vivo, C57BL/6J mice; details: for neutrophil induction by bacterial infection: neutrophil-decrease stage, Vetscan analysis of PB
Method: FIG. 6A experimental design. C57BL/6J mice (n=19) were randomly divided into five groups (3 for control and 4 for each of experimental groups). Mouse neutropenia was induced by IP injection of CPA on day 0. After 4 hrs of CPA injection, different regimens were given to mice once a day, with Am80 by oral or GCSF by SC or vehicle by oral. Mice were challenged by 6.3×10^6 CFU of S. aureus on day 2 via tail vein injection. After 3 hrs infection, each 100 μl blood was collected from tails for analysis of initial bactericidal activity of neutrophils. The mice were sacrificed 16 hrs post-infection, by which PB and heart were harvested. (FIG. 6B) Vetscan analysis of WBC and neutrophils in PB. Except blank mice, neutrophil induction was not observed in all other groups (FIG. 6C-E). Bactericidal activities of neutrophils were determined 3 hr (FIG. 6C) and 16 hrs post-infection (FIG. 6D) in PB as well as in heart (panel E), by using blood agar analysis of viable extracellular bacteria. […] A+G: Am80-GCSF.

[3] = system: S. aureus; assay: Neutrophil bactericidal activity, neutropenic mice at neutrophil-decrease stage, lower dose; assay type: in vivo, C57BL/6J mice; details: for neutrophil induction by bacterial infection: neutrophil-decrease stage, Vetscan analysis of PB
Method: Mice (C57BL6/J) were randomly divided into five groups (3 control and 4 for each experimental group, n=19 mice). C57BL/6J mice (n=19) were randomly divided into five groups (3 for control and 4 for each of experimental groups). The procedures for induction of mouse neutropenia and treatment are the same to the medium dose test (see slide 6). Mice were challenged with 6.3×10^6 CFU of S. aureus on day 2 via tail vein injection. After 3 hrs infection, each 100 μl blood was collected from tails for determining initial bactericidal activities of neutrophils. The mice were sacrificed on day 3, by which PB and spleen were harvested. (FIG. 7A). Vetscan analysis of WBC and neutrophils in PB was performed (FIG. 7B). Except blank mice, neutrophil induction was not observed in all other groups (FIG. 7C-E). Bactericidal activities of neutrophils were determined 3 hr (panel C) and 16 hrs post-infection (panel D) in PB as well as in spleen (panel E), using blood agar analysis of viable extracellular bacteria.

[4] = system: S. Aureus; assay: Neutrophil bactericidal activity and production, neutropenic mice at neutrophil-recovery stage, lower dose; assay type: in vivo, Mice (C57BL6/J)
Method: Mice (C57BL6/J) were randomly divided into five groups (3 control and 4 for each experimental group, n=19 mice). As illustrated (FIG. 8a), mice were given regimens 2 days post-CPA injection (200 mg/kg). After consecutive 3 days of treatment, mice were challenged with S. Aureus for up to 16 hrs before euthanasia. We found a significant increase of peripheral blood (PB) neutrophils in all groups after bacterial infection (FIG. 8b). PB collected at 3 and 16 hrs-post infection was used for analyzing of neutrophil bactericidal activities. […] However, with low doses of Am80-GCSF treatment, Am80 can effectively differentiate GCSF-regenerated granulocytic precursors into mature neutrophils against microbial infection. P<0.05; **: P<0.01; ***: P<0.005.

[5] = system: CD34+ cells; assay: Western blot and gene transcription in CD34+ cells; assay type: cell-based
Source text: A novel gene transcription pattern is induced by Am80, in contrast to All-trans retinoic acid (ATRA or RA).

[6] = system: S. Aureus; assay: Survival of neutropenic mice enduring continual bacteremia; assay type: in vivo; details: treatment 24 hrs post-CPA
Method: If Am80 can indeed differentiate GCSF-regenerated great amount of granulocytic precursors into mature neutrophils against infection, Am80-GCSF combination should effectively reduce infection-related mortality in cancer chemotherapy induced neutropenia. We tested this hypothesis by using neutropenic mice experiencing bacteremia through entire neutropenia period. As illustrated (FIG. 9A), mice were given different regimens 4 hrs post-CPA injection for up to day 8. S. Aureus infection was performed on day 3, and survival rate was calculated on day 9. […] To evaluate bactericidal ability of regenerated neutrophils in survived mice, the survived blank and Am80-GCSF mice on day 11 were further infected with S. Aureus for 15 min before euthanasia. A parallel analysis of freshly isolated PB with both Giemsa and Gram stains determined neutrophil phagocytosis in infected mice vs. free of bacteremia in non-infected mice (FIG. 9E). Since GCSF is usually provided to CCIN ≥24 hrs post-chemo drug, we further tested low and medium doses of Am80-GCSF treatment 24 hrs post-CPA, as illustrated (FIG. 9F, 9J), with two independent experiments for each of doses.

[7] = system: NB4 cells; assay: Proliferation, granulocytic differentiation and ROS production in NB4 cells; assay type: cell-based; details: day 6, in the presence of either fMLP or PMA
[8] = system: AML BM primary blasts; assay: Proliferation of primary blasts from acute myeloid leukemia patients; assay type: cell-based, human
Method: Proliferation of PB primary blasts from acute myeloid leukemia patients was assayed (FIG. 13A) and quantified P<0.05 (FIG. 13B). Granulocytic morphology of AML PB primary blasts was analyzed (FIG. 13C) and quantified; Am80 vs. G-CSF, P<4.0E-8; Am80 vs. control, P<6.02E-7 (FIG. 13D).
Proliferation of BM primary blasts from acute myeloid leukemia patients was assayed (FIG. 13E) and quantified at day 8, Am80 vs. G-CSF, P<0.008; G-CSF vs. control, P<0.032 (FIG. 13F). Granulocytic morphology of AML BM primary blasts was analyzed (FIG. 13G) and quantified; Am80 vs. G-CSF, P<9.9E-4; Am80 vs. RA, P<1.0E-4 (FIG. 13H).

Molecule | sustaining neutrophil levels (PB) ([1]; low and medium doses, 3 days treatment from 4 hr post-CPA, compared to all other treatments) | granulocytic morphology differentiation (PB) ([1]; low doses vs medium doses) | neutrophil bactericidal activity ([2]; 3 hr and 16 hrs post-infection in PB and heart, viable extracellular bacteria) | neutrophil induction by bacterial infection [2] | neutrophil bactericidal activity ([3]; 3 hr and 16 hrs post-infection in PB and spleen, viable extracellular bacteria) | neutrophil induction by bacterial infection [3] | neutrophil production in BM and PB [4] | C/EBPε, CD18, and granule LL-37 mRNA levels [5] | p21Cip/Kip mRNA levels [5] | MAT1 fragmentation ([5]; Western blot) | retinoic acid receptor (RARα) hypophosphorylation ([5]; Western blot) | survival rate ([6]; low-dose test, S. Aureus infection) [%] | survival rate ([6]; medium-dose test, no statistical difference between groups) [%] | differentiation of 3rd layer BM cells, granulocytic morphologic analysis ([1]; medium dose GCSF vs low doses of Am80-GCSF) | recovery of 3rd layer BM cells ([1]; medium dose, Percoll separation of bone marrow cells) | neutrophil bactericidal activity (killing assays) ([4]; PB at 3 and 16 hrs post-infection) | ROS production [7] | growth rate of AML BM primary blasts ([8]; G-CSF vs. control, P<0.018) | growth of non-APL AML patient blasts ([8]; compared to those treated with Am80 or ATRA)
CC1(C)CCC(C)(C)c2cc(NC(=O)c3ccc(C(=O)O)cc3)ccc21 [Am80, tamibarotene] | better EC50 effect on sustaining neutrophil levels | enhanced granulocytic morphology differentiation better than did medium doses | significantly increased neutrophil bactericidal activity | not instigated | greater bactericidal activity than those induced by G-CSF or Am80+GCSF | not instigated | induced least number of neutrophils in both BM and PB | significant up-regulation | decrease | progressive induction | progressive induction | – | – | – | – | – | – | – | –
GCSF: granulocyte colony-stimulating factor (protein, UniProt P09919 31-207, looked up) Granulocyte …: TPLGPASSLPQSFLLKCLEQVRKIQGDGAALQEKLVSECATYKLCHPEELVLLGHSLGIPWAPLSSCPSQALQLAGCLSQLHSGLFLYQGLLQALEGISPELGPTLDTLQLDVADFATTIWQQMEELGMAPALQPTQGAMPAFASAFQRRAGGVLVASHLQSFLEVSYRVLRHLAQP | – | – | – | not instigated | – | not instigated | induced significantly more neutrophils in BM while similar amount in PB compared to Am80-GCSF | – | – | – | – | 12.5 | 11.1 | less differentiated than those induced by low doses of Am80-GCSF | induced highest recovery | significantly low bactericidal activity compared to those induced by Am80-GCSF | fails to induce ROS production | Higher growth rate | promotes the growth
